Data published in the supplement of paper PMC8617591.

Key:
[1] = tested on: Mycobacterium tuberculosis Erdman (autoluminescent); test: FIC50 (Loewe) at 50% inhibition (log2); higher = more antagonistic
Protocol: (§1)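 DiaMOND equipotent two-drug combination dose responses against autoluminescent M. tuberculosis Erdman in 8 in vitro models. Read-out is OD600, or luminescence for the intracellular and dormancy models, normalised to untreated wells. Hill-fit Einf, AUC25 and GRinf are potency metrics; FIC50 and FIC90 are Loewe-additivity fractional inhibitory concentrations, given as log2 (negative = synergy). Replicates are averaged.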

[2] = tested on: Mycobacterium tuberculosis Erdman (autoluminescent); test: FIC90 (Loewe) at 90% inhibition (log2); higher = more antagonistic
Protocol: as §1

[3] = tested on: Mycobacterium tuberculosis Erdman (autoluminescent); test: Einf, fitted maximum growth inhibition of combination (fraction); higher = stronger maximal inhibition
Protocol: as §1

[4] = tested on: Mycobacterium tuberculosis Erdman (autoluminescent); test: GRinf, maximum normalised growth rate inhibition (unitless (-1 to 1)); higher = less effect (negative = killing)
Protocol: as §1

[5] = tested on: Mycobacterium tuberculosis Erdman (autoluminescent); test: AUC25, normalised area under dose response up to IC25 (fraction (0-1)); higher = more potent at low dose
Protocol: as §1

NNC(=O)c1ccncc1 [isoniazid] + O=[N+]([O-])c1cn2c(n1)OC[C@@H](OCc1ccc(OC(F)(F)F)cc1)C2 [pretomanid]
Conditions	AUC25, [5]	Einf, [3]	FIC50, [1]	FIC90, [2]	GRinf, [4]
in vitro model: acidic pH 5.7, time point: constant (~7 days, model-specific)	0.13	0.866	0.312	–	-0.747
in vitro model: acidic pH 5.7, time point: terminal (~4-5 doublings, model-specific)	0.0878	0.99	0.274	0.597	-0.432
in vitro model: intracellular J774, time point: constant = terminal	–	1	–	0.496	-0.631

Conditions	AUC25, [5]	Einf, [3]	FIC50, [1]	FIC90, [2]	GRinf, [4]
in vitro model: butyrate, time point: constant (~7 days, model-specific)	0.0655	0.945	0.776	0.672	-0.0657
in vitro model: butyrate, time point: terminal (~4-5 doublings, model-specific)	0.0383	0.973	0.602	0.403	-0.0769
in vitro model: cholesterol 0.05 mM, time point: constant (~7 days, model-specific)	0.122	0.755	0.145	–	-0.201
in vitro model: cholesterol 0.05 mM, time point: terminal (~4-5 doublings, model-specific)	0.0915	0.922	5.18	0.199	-0.242
in vitro model: cholesterol-high 0.2 mM, time point: constant (~7 days, model-specific)	0.0893	0.875	0.379	–	-0.127
in vitro model: cholesterol-high 0.2 mM, time point: terminal (~4-5 doublings, model-specific)	0.0482	0.982	0.467	0.413	-0.542
in vitro model: dormancy (butyrate + nitrate, low O2), time point: constant (~7 days, model-specific)	0.0671	0.909	0.185	0.145	0.115
in vitro model: dormancy (butyrate + nitrate, low O2), time point: terminal (~4-5 doublings, model-specific)	0.0588	0.983	0.103	0.303	-0.198
in vitro model: standard 7H9 glycerol, time point: constant = terminal	0.0602	0.928	0.303	0.248	0.0614
in vitro model: valerate, time point: constant (~7 days, model-specific)	0.102	0.884	0.537	2.18	-0.208
in vitro model: valerate, time point: terminal (~4-5 doublings, model-specific)	0.0772	0.938	0.495	0.477	0.00535

CC(=O)NC[C@H]1CN(c2ccc(N3CCOCC3)c(F)c2)C(=O)O1 [linezolid] + CO[C@H]1/C=C/O[C@@]2(C)Oc3c(C)c(O)c4c(O)c(c(/C=N/N5CCN(C6CCCC6)CC5)c(O)c4c3C2=O)NC(=O)/C(C)=C\C=C\[C@H](C)[C@H](O)[C@@H](C)[C@@H](O)[C@@H](C)[C@H](OC(C)=O)[C@@H]1C [rifapentine]
Conditions	AUC25, [5]	Einf, [3]	FIC50, [1]	FIC90, [2]	GRinf, [4]
in vitro model: acidic pH 5.7, time point: constant (~7 days, model-specific)	0.0817	0.89	0.435	–	-0.248
in vitro model: acidic pH 5.7, time point: terminal (~4-5 doublings, model-specific)	0.0632	0.979	0.277	0.184	-0.205
in vitro model: intracellular J774, time point: constant = terminal	–	0.948	–	-0.637	-0.209

Conditions	AUC25, [5]	Einf, [3]	FIC50, [1]	FIC90, [2]	GRinf, [4]
in vitro model: butyrate, time point: constant (~7 days, model-specific)	0.0729	0.876	0.227	-0.305	0.113
in vitro model: butyrate, time point: terminal (~4-5 doublings, model-specific)	0.0445	0.934	0.0572	-0.553	0.0794
in vitro model: cholesterol 0.05 mM, time point: constant (~7 days, model-specific)	0.156	0.718	-0.52	–	-0.0866
in vitro model: cholesterol 0.05 mM, time point: terminal (~4-5 doublings, model-specific)	0.107	0.929	-0.0542	0.274	-0.162
in vitro model: cholesterol-high 0.2 mM, time point: constant (~7 days, model-specific)	0.109	0.966	-0.254	-0.688	-0.499
in vitro model: cholesterol-high 0.2 mM, time point: terminal (~4-5 doublings, model-specific)	0.103	1	0.0666	0.0759	-0.762
in vitro model: dormancy (butyrate + nitrate, low O2), time point: constant (~7 days, model-specific)	0.0497	0.908	0.552	0.666	0.107
in vitro model: dormancy (butyrate + nitrate, low O2), time point: terminal (~4-5 doublings, model-specific)	0.0324	0.979	0.585	0.484	-0.13
in vitro model: standard 7H9 glycerol, time point: constant = terminal	0.0541	0.927	0.266	0.154	-0.0203
in vitro model: valerate, time point: constant (~7 days, model-specific)	0.064	0.849	0.063	–	0.119
in vitro model: valerate, time point: terminal (~4-5 doublings, model-specific)	0.0448	0.935	0.198	0.078	0.0691

CC(=O)NC[C@H]1CN(c2ccc(N3CCOCC3)c(F)c2)C(=O)O1 [linezolid] + CO[C@H]1/C=C/O[C@@]2(C)Oc3c(C)c(O)c4c(O)c(c(/C=N/N5CCN(C)CC5)c(O)c4c3C2=O)NC(=O)/C(C)=C\C=C\[C@H](C)[C@H](O)[C@@H](C)[C@@H](O)[C@@H](C)[C@H](OC(C)=O)[C@@H]1C [rifampicin]
Conditions	AUC25, [5]	Einf, [3]	FIC50, [1]	FIC90, [2]	GRinf, [4]
in vitro model: acidic pH 5.7, time point: constant (~7 days, model-specific)	0.0878	0.902	0.204	–	-0.289
in vitro model: acidic pH 5.7, time point: terminal (~4-5 doublings, model-specific)	0.0656	0.983	0.31	0.0747	-0.211
in vitro model: intracellular J774, time point: constant = terminal	–	0.955	–	-0.706	-0.24

Conditions	AUC25, [5]	Einf, [3]	FIC50, [1]	FIC90, [2]	GRinf, [4]
in vitro model: butyrate, time point: constant (~7 days, model-specific)	0.078	0.87	0.117	–	0.146
in vitro model: butyrate, time point: terminal (~4-5 doublings, model-specific)	0.0601	0.938	-0.0786	-0.707	0.11
in vitro model: cholesterol 0.05 mM, time point: constant (~7 days, model-specific)	0.154	0.725	-0.622	–	-0.00382
in vitro model: cholesterol 0.05 mM, time point: terminal (~4-5 doublings, model-specific)	0.13	0.935	-0.194	-0.403	-0.175
in vitro model: cholesterol-high 0.2 mM, time point: constant (~7 days, model-specific)	0.101	0.997	-0.0412	-0.846	-0.295
in vitro model: cholesterol-high 0.2 mM, time point: terminal (~4-5 doublings, model-specific)	0.0937	1	0.555	-0.0135	-0.687
in vitro model: dormancy (butyrate + nitrate, low O2), time point: constant (~7 days, model-specific)	0.0704	0.905	0.505	0.314	0.177
in vitro model: dormancy (butyrate + nitrate, low O2), time point: terminal (~4-5 doublings, model-specific)	0.0353	0.969	0.176	0.0537	-0.0276
in vitro model: standard 7H9 glycerol, time point: constant = terminal	0.0527	0.885	0.284	–	0.156
in vitro model: valerate, time point: constant (~7 days, model-specific)	0.0582	0.865	0.191	–	0.0036
in vitro model: valerate, time point: terminal (~4-5 doublings, model-specific)	0.0309	0.945	0.171	-0.411	0.00264
